# Test results published in patent US5525599A, “7-substituted-amino-3-substituted-3-cephem-4-carboxylic acids” (Eli Lilly and Company, priority 1993, dated 1996).
# How the values were obtained:
# E. coli (EC14) = assay: In vitro activity (MIC), agar dilution method; assay type: cell-based; conditions: Escherichia coli
# Procedure: (§1) Cephalosporins 9a-o were assayed against a broad array of Gram-positive and Gram-negative bacteria in Mueller-Hinton agar by the 2-fold serial dilution method, (Kirst, H. A.; J. Antibiot. 1982, 35, 1675).
# (§2) Test compounds were diluted to an appropriate range of concentrations in 0.1M phosphate buffer (pH 7), incorporated into Mueller-Hinton agar (difco) supplemented with 1% Bacto-Supplement C (Difco) at 50° C. and allowed to solidify in petri dishes. Fresh overnight cultures of test bacteria were diluted to approximately 1×10^4 cells/mL aand applied in […] to the surface of the agar plates. The inoculated plates were incubated overnight at 35° C. in ambient air. MIC endpoints were recorded as the lowest antibiotic concentrations that inhibited the development of visible bacterial growth on the plates.
# E. coli (N10) = assay: In vitro activity (MIC), agar dilution method; assay type: cell-based; conditions: Escherichia coli
# Procedure: as §1, §2
# E. coli (TEM) = assay: In vitro activity (MIC), agar dilution method; assay type: cell-based; conditions: Escherichia coli
# Procedure: as §1, §2
# Enter. faecalis (2041) = assay: In vitro activity (MIC), agar dilution method; assay type: cell-based; conditions: Enterococcus faecalis
# Procedure: as §1, §2
# Enter. faecium (X66) = assay: In vitro activity (MIC), agar dilution method; assay type: cell-based; conditions: Enterococcus faecium
# Procedure: as §1, §2
# H. influenzae (76) = assay: In vitro activity (MIC), agar dilution method; assay type: cell-based; conditions: Haemophilus influenzae
# Procedure: as §1, §2
# H. influenzae (C.L.) = assay: In vitro activity (MIC), agar dilution method; assay type: cell-based; conditions: Haemophilus influenzae
# Procedure: as §1, §2
# K. pneumonia (KAE) = assay: In vitro activity (MIC), agar dilution method; assay type: cell-based; conditions: Klebsiella pneumoniae
# Procedure: as §1, §2
# K. pneumonia (X26) = assay: In vitro activity (MIC), agar dilution method; assay type: cell-based; conditions: Klebsiella pneumoniae
# Procedure: as §1, §2
# K. pneumonia (X68) = assay: In vitro activity (MIC), agar dilution method; assay type: cell-based; conditions: Klebsiella pneumoniae
# Procedure: as §1, §2
# Staph. aureus (S13E) = assay: In vitro activity (MIC), agar dilution method; assay type: cell-based; conditions: Staphylococcus aureus
# Procedure: as §1, §2
# Staph. aureus (V41) = assay: In vitro activity (MIC), agar dilution method; assay type: cell-based; conditions: Staphylococcus aureus
# Procedure: as §1, §2
# Staph. aureus (X1.1) = assay: In vitro activity (MIC), agar dilution method; assay type: cell-based; conditions: Staphylococcus aureus
# Procedure: as §1, §2
# Staph. aureus (X400) = assay: In vitro activity (MIC), agar dilution method; assay type: cell-based; conditions: Staphylococcus aureus
# Procedure: as §1, §2
# Staph. epiderm. (222) = assay: In vitro activity (MIC), agar dilution method; assay type: cell-based; conditions: Staphylococcus epidermidis
# Procedure: as §1, §2
# Strept. pyogenes (C203) = assay: In vitro activity (MIC), agar dilution method; assay type: cell-based; conditions: Streptococcus pyogenes
# Procedure: as §1, §2
# other Gram(-) bacteria = assay: In vitro activity (MIC), agar dilution method; assay type: cell-based
# Gram-positive bacteria = conditions: in words; background statement; cited from earlier work
compound,measurement,setting,value
"CN[C@H](CC(C)C)C(=O)N[C@H]1C(=O)N[C@@H](CC(N)=O)C(=O)N[C@H]2C(=O)N[C@H]3C(=O)N[C@H](C(=O)N[C@H](C(=O)O)c4cc(O)cc(O)c4-c4cc3ccc4O)[C@H](O)c3ccc(c(Cl)c3)Oc3cc2cc(c3O[C@@H]2O[C@H](CO)[C@@H](O)[C@H](O)[C@H]2O[C@H]2C[C@](C)(N)[C@H](O)[C@H](C)O2)Oc2ccc(cc2Cl)[C@H]1O [Vanc, Vancomycin, reference compound]",MIC,E. coli (EC14),128 µg/mL
same,MIC,E. coli (N10),128 µg/mL
same,MIC,E. coli (TEM),128 µg/mL
same,MIC,Enter. faecalis (2041),2 µg/mL
same,MIC,Enter. faecium (X66),0.5 µg/mL
same,MIC,H. influenzae (76),128 µg/mL
same,MIC,H. influenzae (C.L.),64 µg/mL
same,MIC,K. pneumonia (KAE),128 µg/mL
same,MIC,K. pneumonia (X26),128 µg/mL
same,MIC,K. pneumonia (X68),128 µg/mL
same,MIC,Staph. aureus (S13E),0.5 µg/mL
same,MIC,Staph. aureus (V41),0.5 µg/mL
same,MIC,Staph. aureus (X1.1),0.5 µg/mL
same,MIC,Staph. aureus (X400),0.5 µg/mL
same,MIC,Staph. epiderm. (222),0.5 µg/mL
same,MIC,Strept. pyogenes (C203),0.5 µg/mL
same,MIC,other Gram(-) bacteria,128 µg/mL
same,activity against Gram-positive bacteria including methicillin-resistant staphylococci,Gram-positive bacteria,potent activity only against the Gram-positive bacteria including methicillin-resistant staphylococci
